Consider 11 molecules from patent US20240317743A1, “Solid Forms of BCL-2 Inhibitors, Method of Preparation, and Use Thereof” (BeiGene, Ltd., priority 2021, published 2024).

Converted amounts (≈) assume the structure as drawn.

Format in all cases: physicochemical
A short description of series [1]: DVS (Method B) water sorption / hygroscopicity. The settings on record: 25° C.; for water sorption: at 95% RH. As to the method: DVS of Form A and U was also measured via an SMS (Surface Measurement Systems) DVS Intrinsic (Method B). The relative humidity at 25° C. was calibrated against deliquescence point of LiCl, Mg(NO3)2, and KCL. Parameters for DVS test are listed as follows. [table]

Series [2] is described as follows: Solid form solubility, concentration by HPLC at 24 hours. The settings on record: listed as Compound 1 Form A. As to the method:
The solubility of Compound 1 in different physical forms was tested in water, 0.1 N HCl, pH 4.5 acetate buffer and pH 6.8 phosphate buffer. At 24 hours of time point, the concentration of Compound 1 was detected by HPLC.

The nature of series [3]: Long term and accelerated physical and chemical stability test, impurities by HPLC. On the procedure:
Long term and accelerated stability studies were conducted in different physical forms of Compound 1, by storing the samples at 25±2° C./60±5% RH and 40±2° C./75±5% RH conditions for up to 6 months. And, the content of the total impurities of each sample was tested by HPLC.

Series [4] in a line: Physical stability: storage under humidity/temperature, form checked by XRPD. As to the method: To evaluate the physicochemical stability, store 1˜3 mg of Forms B, S, M, R, F, H and N samples were stored under 25° C./60% RH or 40° C./75% RH conditions for one week (unsealed) or 80° C. condition for 24 hrs (sealed).
Series [5] is described as follows: Storage at RT, form checked by XRPD overlay. As to the method: Form K was speculated as a methyl acetate solvate.
Thus, Form L was speculated as a metastable anhydrate/hydrate which could be de-solvated from the wet cake from the solvent system.
(peak) before decomposition (FIG. 16B). According to the integration of ^1H NMR result (FIG. 16C), the theoretical weight of chlorobenzene was calculated as 9.8%, which matched with the TGA weight loss. […] After heating the sample to 140° C., more diffraction peaks disappeared. Combined with the TGA, ^1H NMR data and heating experiment, Form P was speculated as a chlorobenzene solvate.

The mark [6] stands for this setting: 25±2° C./60±5% RH and 40±2° C./75±5% RH, up to 6 months.
The mark [7] stands for this setting: 25° C./60% RH, one week, unsealed.
[8] abbreviates: 40° C./75% RH, one week, unsealed.

The molecule `CC(C)c1ccccc1[C@@H]1CCCN1C1CC2(CCN(c3ccc(C(=O)NS(=O)(=O)c4ccc(NCC5CCC(C)(O)CC5)c([N+](=O)[O-])c4)c(Oc4cnc5[nH]ccc5c4)c3)CC2)C1` (stereo partly drawn) [Form A, 2-((1H-pyrrolo[2,3-b]pyridin-5-yl)oxy)-N-((4-((((1r,4r)-4-hydroxy-4-methylcyclohexyl)methyl)amino)-3-nitrophenyl)sulfonyl)-4-(2-((S)-2-(2-isopropylphenyl)pyrrolidin-1-yl)-7-azaspiro[3.5]nonan-7-yl)benzamide] showed a water sorption in series [1] (listed as Compound 1 form A) of 0.4%. For the same molecule, the hygroscopicity entry in series [1] (listed as Compound 1 form A) is given as “slightly hygroscopic”. Moreover, the solubility in series [2] (0.1 N HCl) amounted to 29.36 µg/mL (≈ 33 µM); in series [2] (pH 4.5 acetate buffer), 0.76 µg/mL (≈ 0.854 µM); in series [2] (pH 6.8 phosphate buffer) it was 0.43 µg/mL (≈ 0.483 µM); in series [2] (water), 0.37 µg/mL (≈ 0.416 µM). Also, the crystal form change entry in series [3] (setting [6]) was “no crystal form and optical purity changes”. For the same molecule, the optical purity change entry in series [3] (setting [6]) was “no crystal form and optical purity changes”. Moreover, the “change of chemical purity” value in series [3] (25±2° C./60±5% RH and 40±2° C./75±5% RH, up to 6 months, listed as Compound 1 Form A) is “no significant change”. Also, the “total content of impurities” value was found to be 0.52% in series [3] (after 6 months at 40±2° C./75±5% RH, listed as Compound 1 Form A) and 0.40% in series [3] (before storage (initial), listed as Compound 1 Form A). In addition, the “content of solvent EA” value is on record as ~8.8 ×10^4 ppm in series [3] (after storage in the stability study) and “about 9.5 ×10^4 ppm” in series [3] (before storage (initial)).

In the case of `CC(C)c1ccccc1[C@@H]1CCCN1C1CC2(CCN(c3ccc(C(=O)NS(=O)(=O)c4ccc(NCC5CCC(C)(O)CC5)c([N+](=O)[O-])c4)c(Oc4cnc5[nH]ccc5c4)c3)CC2)C1` (stereo partly drawn) [Form F, 2-((1H-pyrrolo[2,3-b]pyridin-5-yl)oxy)-N-((4-((((1r,4r)-4-hydroxy-4-methylcyclohexyl)methyl)amino)-3-nitrophenyl)sulfonyl)-4-(2-((S)-2-(2-isopropylphenyl)pyrrolidin-1-yl)-7-azaspiro[3.5]nonan-7-yl)benzamide], the “form change (XRPD overlay)” value in series [4] (setting [7]) was “a mixture of Forms F and B was observed”; in series [4] (setting [8]), “a mixture of Forms F and B was observed”; in series [4] (80° C., sealed, 24 hrs), “a mixture of Forms F and B was observed”.

`CC(C)c1ccccc1[C@@H]1CCCN1C1CC2(CCN(c3ccc(C(=O)NS(=O)(=O)c4ccc(NCC5CCC(C)(O)CC5)c([N+](=O)[O-])c4)c(Oc4cnc5[nH]ccc5c4)c3)CC2)C1` (stereo partly drawn) [Form H, 2-((1H-pyrrolo[2,3-b]pyridin-5-yl)oxy)-N-((4-((((1r,4r)-4-hydroxy-4-methylcyclohexyl)methyl)amino)-3-nitrophenyl)sulfonyl)-4-(2-((S)-2-(2-isopropylphenyl)pyrrolidin-1-yl)-7-azaspiro[3.5]nonan-7-yl)benzamide]: the “form change (XRPD overlay)” value in series [4] (setting [7]) is given as “no form change”; in series [4] (setting [8]), “no form change”; in series [4] (80° C., sealed, 24 hrs), “an obvious decrease of crystallinity was observed”.

As for `CC(C)c1ccccc1[C@@H]1CCCN1C1CC2(CCN(c3ccc(C(=O)NS(=O)(=O)c4ccc(NCC5CCC(C)(O)CC5)c([N+](=O)[O-])c4)c(Oc4cnc5[nH]ccc5c4)c3)CC2)C1` (stereo partly drawn) [Form K, 2-((1H-pyrrolo[2,3-b]pyridin-5-yl)oxy)-N-((4-((((1r,4r)-4-hydroxy-4-methylcyclohexyl)methyl)amino)-3-nitrophenyl)sulfonyl)-4-(2-((S)-2-(2-isopropylphenyl)pyrrolidin-1-yl)-7-azaspiro[3.5]nonan-7-yl)benzamide], in series [5] (RT, closed HPLC vial, ~5 weeks), the “form change on storage (XRPD overlay)” value is reported as “converted to Form B of low crystallinity”.

On to `CC(C)c1ccccc1[C@@H]1CCCN1C1CC2(CCN(c3ccc(C(=O)NS(=O)(=O)c4ccc(NCC5CCC(C)(O)CC5)c([N+](=O)[O-])c4)c(Oc4cnc5[nH]ccc5c4)c3)CC2)C1` (stereo partly drawn) [Form L, 2-((1H-pyrrolo[2,3-b]pyridin-5-yl)oxy)-N-((4-((((1r,4r)-4-hydroxy-4-methylcyclohexyl)methyl)amino)-3-nitrophenyl)sulfonyl)-4-(2-((S)-2-(2-isopropylphenyl)pyrrolidin-1-yl)-7-azaspiro[3.5]nonan-7-yl)benzamide], for which the “form change on storage” value in series [5] (storage at RT) was “converted to Form I”.

Consider `CC(C)c1ccccc1[C@@H]1CCCN1C1CC2(CCN(c3ccc(C(=O)NS(=O)(=O)c4ccc(NCC5CCC(C)(O)CC5)c([N+](=O)[O-])c4)c(Oc4cnc5[nH]ccc5c4)c3)CC2)C1` (stereo partly drawn) [Form M, 2-((1H-pyrrolo[2,3-b]pyridin-5-yl)oxy)-N-((4-((((1r,4r)-4-hydroxy-4-methylcyclohexyl)methyl)amino)-3-nitrophenyl)sulfonyl)-4-(2-((S)-2-(2-isopropylphenyl)pyrrolidin-1-yl)-7-azaspiro[3.5]nonan-7-yl)benzamide], for which the “form change (XRPD overlay)” value is “no form change” in series [4] (setting [7]); “no form change” in series [4] (setting [8]); “no form change” in series [4] (80° C., sealed, 24 hrs).

For the molecule `CC(C)c1ccccc1[C@@H]1CCCN1C1CC2(CCN(c3ccc(C(=O)NS(=O)(=O)c4ccc(NCC5CCC(C)(O)CC5)c([N+](=O)[O-])c4)c(Oc4cnc5[nH]ccc5c4)c3)CC2)C1` (stereo partly drawn) [Form N, 2-((1H-pyrrolo[2,3-b]pyridin-5-yl)oxy)-N-((4-((((1r,4r)-4-hydroxy-4-methylcyclohexyl)methyl)amino)-3-nitrophenyl)sulfonyl)-4-(2-((S)-2-(2-isopropylphenyl)pyrrolidin-1-yl)-7-azaspiro[3.5]nonan-7-yl)benzamide], the “form change (XRPD overlay)” value in series [4] (setting [7]) is reported as “converted to Form T”; in series [4] (setting [8]) it was “converted to Form T”; in series [4] (80° C., sealed, 24 hrs), “converted to Form T”.

For `CC(C)c1ccccc1[C@@H]1CCCN1C1CC2(CCN(c3ccc(C(=O)NS(=O)(=O)c4ccc(NCC5CCC(C)(O)CC5)c([N+](=O)[O-])c4)c(Oc4cnc5[nH]ccc5c4)c3)CC2)C1` (stereo partly drawn) [Form P, 2-((1H-pyrrolo[2,3-b]pyridin-5-yl)oxy)-N-((4-((((1r,4r)-4-hydroxy-4-methylcyclohexyl)methyl)amino)-3-nitrophenyl)sulfonyl)-4-(2-((S)-2-(2-isopropylphenyl)pyrrolidin-1-yl)-7-azaspiro[3.5]nonan-7-yl)benzamide], the “form change on storage (XRPD comparison)” value in series [5] (RT, ~4 weeks) is listed as “some of the diffraction peaks disappeared”.

`CC(C)c1ccccc1[C@@H]1CCCN1C1CC2(CCN(c3ccc(C(=O)NS(=O)(=O)c4ccc(NCC5CCC(C)(O)CC5)c([N+](=O)[O-])c4)c(Oc4cnc5[nH]ccc5c4)c3)CC2)C1` (stereo partly drawn) [Form R, 2-((1H-pyrrolo[2,3-b]pyridin-5-yl)oxy)-N-((4-((((1r,4r)-4-hydroxy-4-methylcyclohexyl)methyl)amino)-3-nitrophenyl)sulfonyl)-4-(2-((S)-2-(2-isopropylphenyl)pyrrolidin-1-yl)-7-azaspiro[3.5]nonan-7-yl)benzamide]: the “form change (XRPD overlay)” value in series [4] (setting [7]) is given as “no form change was observed”; in series [4] (setting [8]) it was “no form change was observed”; in series [4] (80° C., sealed, 24 hrs), “converted to a form which was similar to Form S”.

With `CC(C)c1ccccc1[C@@H]1CCCN1C1CC2(CCN(c3ccc(C(=O)NS(=O)(=O)c4ccc(NCC5CCC(C)(O)CC5)c([N+](=O)[O-])c4)c(Oc4cnc5[nH]ccc5c4)c3)CC2)C1` (stereo partly drawn) [Form S, 2-((1H-pyrrolo[2,3-b]pyridin-5-yl)oxy)-N-((4-((((1r,4r)-4-hydroxy-4-methylcyclohexyl)methyl)amino)-3-nitrophenyl)sulfonyl)-4-(2-((S)-2-(2-isopropylphenyl)pyrrolidin-1-yl)-7-azaspiro[3.5]nonan-7-yl)benzamide], the “form change (XRPD overlay)” value in series [4] (setting [7]) was “no form change”; in series [4] (setting [8]), “no form change”; in series [4] (80° C., sealed, 24 hrs), “no form change”.

Consider `CC(C)c1ccccc1[C@@H]1CCCN1C1CC2(CCN(c3ccc(C(=O)NS(=O)(=O)c4ccc(NCC5CCC(C)(O)CC5)c([N+](=O)[O-])c4)c(Oc4cnc5[nH]ccc5c4)c3)CC2)C1` (stereo partly drawn) [Form U, 2-((1H-pyrrolo[2,3-b]pyridin-5-yl)oxy)-N-((4-((((1r,4r)-4-hydroxy-4-methylcyclohexyl)methyl)amino)-3-nitrophenyl)sulfonyl)-4-(2-((S)-2-(2-isopropylphenyl)pyrrolidin-1-yl)-7-azaspiro[3.5]nonan-7-yl)benzamide], for which, in series [1] (listed as Compound 1 Form U), the water sorption turned out to be 1.4% and the hygroscopicity result is listed as “slightly hygroscopicity”. Further, in series [3] (25±2° C./60±5% RH and 40±2° C./75±5% RH, up to 6 months, listed as Compound 1 Form U), the “change of chemical purity” value was “no significant change”. The “total content of impurities” value in series [3] (after 6 months at 40±2° C./75±5% RH, listed as Compound 1 Form U) amounted to 0.72%. Besides, in series [3] (before storage (initial), listed as Compound 1 Form U), the “total content of impurities” value is on record as 0.40%.

The solubility is the dissolved amount per volume that the medium holds. Higher therefore signals much dissolved substance.
